The results in this text go back to PMC10525516, “Novel NADPH Oxidase-2 Inhibitors as Potential Anti-Inflammatory and Neuroprotective Agents” (Antioxidants, 2023).

Data set [1] deals with T1, Nox2 (Homo sapiens, UniProt P04839).
T1 construct: endogenous in cells
T1 sequence (P04839 2-570 limits assumed): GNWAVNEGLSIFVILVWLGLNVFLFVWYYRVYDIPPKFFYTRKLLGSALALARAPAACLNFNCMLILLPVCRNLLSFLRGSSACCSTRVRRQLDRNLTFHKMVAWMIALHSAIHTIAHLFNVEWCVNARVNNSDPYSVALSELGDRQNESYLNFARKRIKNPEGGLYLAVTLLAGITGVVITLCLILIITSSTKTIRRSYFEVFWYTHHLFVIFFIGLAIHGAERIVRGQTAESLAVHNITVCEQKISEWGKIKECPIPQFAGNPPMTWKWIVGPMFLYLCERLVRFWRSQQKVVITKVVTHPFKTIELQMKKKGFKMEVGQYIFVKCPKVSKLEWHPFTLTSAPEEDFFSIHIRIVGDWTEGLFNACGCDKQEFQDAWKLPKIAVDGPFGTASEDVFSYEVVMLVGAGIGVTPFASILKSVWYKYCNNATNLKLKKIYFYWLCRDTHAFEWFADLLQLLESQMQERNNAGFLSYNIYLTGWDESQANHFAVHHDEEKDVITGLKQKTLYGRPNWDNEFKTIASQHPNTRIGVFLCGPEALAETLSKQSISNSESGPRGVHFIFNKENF
T1 sequence (P13498 2-195 partner limits assumed): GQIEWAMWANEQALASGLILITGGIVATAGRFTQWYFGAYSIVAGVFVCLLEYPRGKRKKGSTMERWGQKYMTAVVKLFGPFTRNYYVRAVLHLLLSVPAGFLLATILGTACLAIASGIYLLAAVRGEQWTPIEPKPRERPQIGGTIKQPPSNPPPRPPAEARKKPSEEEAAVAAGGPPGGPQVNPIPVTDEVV
Kind of data set: Plate reader hydroethidine (HE + DNA) assay of O2•− production by PMA-activated dHL60 cells. It is filed as cell-based. On the procedure:
Human promyelocytic leukemia HL60 cells (Sigma-Aldrich) were grown in RPMI 1640 medium (Gibco, 11875-093, Billings, MT, USA) supplemented with 10% FBS (Omega Scientific (Tarzana, CA, USA)), 100 units/mL penicillin, and 100 µg/mL streptomycin, and were incubated at 37 °C and 5% carbon dioxide (CO2). For differentiation to neutrophil-like cells, HL60 cells were pelleted and resuspended in fresh media containing 1 µM of all trans-retinoic acid and incubated for four to five days. Nox2 activation was achieved by treating differentiated HL60 (dHL60) cells with 1 µM PMA [24]. […]
Plate reader-based analyses of the production of O2^•− and H2O2 by PMA-activated dHL60 cells were performed according to a published protocol with minor modifications. […] Once probes + PMA were added, plates were sealed with sealing film and immediately placed in the pre-warmed plate readers (37 °C). Fluorescence intensities were monitored kinetically from the bottom of the plates every 1.3 min for a period of 2 h using Beckman Coulter (Brea, CA, USA) DTX880 and BMG Labtech (Ortenberg, Germany) FLUOstar Omega plate readers. […] The IC50 values were determined using at least five independent measurements, each consisting of technical quadruplicates per concentration.

In data set [2] the test system is THP-1 cells. The data set is described as follows: qRT-PCR mRNA expression of Nox2 subunits and inflammatory mediators in PMA-treated THP-1 cells. It is filed as cell-based, human. Conditions: 3 µM, 48 h with PMA 100 ng/mL. The protocol: Human promyelocytic leukemia HL60 cells (Sigma-Aldrich) were grown in RPMI 1640 medium (Gibco, 11875-093, Billings, MT, USA) supplemented with 10% FBS (Omega Scientific (Tarzana, CA, USA)), 100 units/mL penicillin, and 100 µg/mL streptomycin, and were incubated at 37 °C and 5% carbon dioxide (CO2). For differentiation to neutrophil-like cells, HL60 cells were pelleted and resuspended in fresh media containing 1 µM of all trans-retinoic acid and incubated for four to five days. Nox2 activation was achieved by treating differentiated HL60 (dHL60) cells with 1 µM PMA [24]. Human leukemia monocytic cells, THP-1, were grown in RPMI 1640 medium + GlutaMAX^TM (Gibco, 61870-036) and supplemented with 10% FBS, 10 mM HEPES, and 1 mM sodium pyruvate and incubated at 37 °C in 5% CO2 environment. To induce differentiation into macrophages, THP-1 cells were treated with PMA (100 ng/mL) for 48 h. To test the efficacy of Nox2 inhibitors, treatment was performed with or without the inhibitor, along with PMA [35].
mRNA expression analysis was performed as previously described. Briefly, THP-1 cells were treated with PMA (100 ng/mL) with or without the Nox2 inhibitor TG15-132 (3.0 µM) for 48 h. RNA extraction was done using the Quick-RNA miniprep kit (cat. no. R1055, Zymo Research, Irvine, CA, USA) and followed by cDNA synthesis using the qScript cDNA superMix kit (cat. no. 84035, Quantabio, Beverly, MA, USA). Quantitative real-time PCR was performed using specific primers designed to amplify target genes (Table 2). Data obtained were analyzed and converted into fold changes in expression with respect to vehicle-treated cells.

The test system of data set [3] is dHL60 cells. The data set is described as follows: Cell Titer Glo 2.0 cytotoxicity (ATP) assay in PMA-stimulated dHL60 cells. It is filed as cell-based, human. The protocol: The cytotoxicity of the inhibitors was tested by measuring the amount of ATP in the wells containing PMA-stimulated dHL60 cells and the candidate inhibitors. Cells were prepared as described for the plate reader-based measurements for H2O2, except that the cells were maintained with the inhibitors in a CO2-free incubator at 37 °C for 2.5 h to mirror the conditions during the fluorescence-based monitoring of H2O2 described above. After incubation, cells (100 µL/well) were transferred to white 96-well plates (Greiner, Kremsmünster, Austria), and the total cellular ATP amount was determined using the Cell Titer Glo 2.0 (Promega) cytotoxicity assay (100 µL/well) by measuring the luminescence intensity using a Beckman Coulter DTX880 plate reader.
In general terms: Cellular ATP, detected with luciferase, serves as a proxy for viable cell number.

One may read the IC50 as the concentration at which inhibition is half-maximal.

`CN(C)CCCn1c(SCCc2c[nH]c3ccccc23)nc2ccc(F)cc2c1=O` [TG15-132]: in data set [1] (HE probe + DNA, plate reader, PMA-activated dHL60 cells, Figure 5C, read-out: IC50, inhibition of O2•− production), the IC50 is 5 µM. In data set [1] (cell pretreatment, Figure 5B,C), the “PMA-stimulated increase in HE fluorescence intensity” value was “dose-dependently inhibited”. Besides, in data set [2], the “mRNA expression vs PMA-treated cells, additional experiment (Figure 7B)” value was “statistically significant reduction in the expression of p47^phox, IL-1β, and TNF”; the “mRNA expression vs cells treated with PMA alone (Figure 7A)” value is “reduced the expression of gp91^phox, p47^phox, p67^phox, IL-1β, and TNF”. In data set [3] (Homo sapiens, Cell Titer Glo 2.0, PMA-stimulated dHL60 cells, 2.5 h with inhibitor, unit not printed in Table 3, taken from text, read-out: IC50, Viability Assay), the IC50 came out at 34.5 ± 6 µM. For the same molecule, the “cell viability at concentrations showing Nox2 inhibitory potency” value in data set [3] (dHL60 cells, Figure 3D,E) is “no decrease in cell viability”.
